The results in this text go back to PMC12664080, “Tetrazole-containing naphthalene bis-sulfonamide Keap1-Nrf2 interaction inhibitors with unexpected binding modes” (Redox Biology, 2025).

One data set relates to Nrf2. The data set can be described thus: Nrf2 luciferase reporter assay (MCF7 ARE-luciferase reporter cell line). The format is cell-based. As to conditions: Homo sapiens; 100 μM (highest test concentration), MCF7 cells; read-out: peak fold induction of luciferase activity. The procedure: The induction of luciferase activity in the stably transfected MCF7 ARE-luciferase reporter cell line was measured using an adaptation of a published procedure. […] The cells were treated with compound or vehicle control (1 % final DMSO concentration) and incubated for a further 24 h. The culture medium was aspirated and the cells were washed with 100 μL per well PBS. The cells were lysed using 75 μL per well lysis buffer (0.2 % Triton X-100 in 25 mM Tris pH 7.5) under gentle agitation at rt for 30 min. The samples were transferred to 500 μL Eppendorf tubes and centrifuged at 10000 g for 5 min at 4 °C. 50 μL of supernatant from each sample were transferred to a new 96 well plate. 50 uL of working reagent (100 mM Tris pH 8.0, 5 mM MgCl2, 100 μM coenzyme A, 80 μM luciferin, and 5 mM ATP) were added to each well and the luciferase activity was measured.
A general note: Reporter assays use an easily measured gene product as a stand-in for the process of interest.

The next data set concerns NQO1. The data set can be described thus: NQO1 induction assay in Hepa1c1c7 cells. Format: cell-based, mouse. As to conditions: Mus musculus, Hepa-1c1c7, 10 μM. The procedure:
The method using Hepa1c1c7 cells has been described previously. Briefly, cells were seeded into 96-well plates (2 × 10^4 cells/200 μL per well) then incubated overnight at 37 °C. The cells were treated with compound (10 μM final concentration) or vehicle (final DMSO concentration 0.1 % DMSO) and incubated for a further 24 h or 48 h. The culture medium was aspirated and the cells treated with lysis buffer (50 μL per well, 0.1 % Tween 20 in 2 mM EDTA (pH 7.5)) then agitated for 15 min. Enzyme reaction mixture was added to each well (200 μL of 25 mM Tris buffer (pH 7.5) containing BSA (0.067 %), Tween20 (0.01 %), FAD (5 μM), G6P (1 mM), NADP (30 μM), G6P dehydrogenase (40 units), MTT (0.03 %), menadione (50 μM)) for 5 min then stop solution was applied (40 μL of 10 % SDS, final concentration 1.5 % SDS). Following brief agitation of the plate, the absorbance at 595 nm was measured. The background optical density was measured from wells containing tissue culture medium, lysis buffer, enzyme and stop solutions in the absence of Hepa1c1c7 cells. The change in background-corrected NQO1 activity (change in optical density) relative to the control was determined for each compound.

Data set [1] in a line: 1D 1H NMR lineshape analysis of cis/trans rotamer exchange. As to conditions: DMSO; for kA→B / ΔH^‡AB / ΔHAB: lineshape; for ΔH^‡AB: Eyring; for ΔHAB: van't Hoff.
Method: Exchange was quantified using a two-site exchange model [40] implemented in Julia, where resonances were fitted to calculate chemical shifts of the two states and the exchange rates kAB and kBA between them. […] Reported uncertainties were determined from the standard errors of the fits.
Exchange rates kAB and kBA were used to determine the relative populations pA=kBA/kAB+kBA and pB=kAB/kAB+kBA and were fitted to van't Hoff and Eyring equations (with unit transmission coefficient) to estimate the enthalpy and entropy changes and enthalpy and entropy of activation.
In data set [2] the target is T1, Keap1 Kelch domain (Homo sapiens, UniProt Q14145).
T1 construct: made in house
Briefly: Differential scanning fluorimetry (DSF) thermal shift assay. Format: binding. Particulars: 10 μM compound; Keap1 vehicle control Ti = 61.3 ± 0.3 °C. The procedure:
The DSF assays were carried out according to the previously described method. Solutions of the Keap1 Kelch domain protein (5 μM final concentration) and the small molecule inhibitor (10 μM final concentration) were prepared in DPBS at pH 7.4 (10 % final DMSO concentration, 20 μL final volume) in an Eppendorf tube. The solution was centrifuged briefly (1500 rpm, 60 s) to remove any particulates and mix the samples, followed by a 30 min incubation at RT. The samples were loaded into Tycho NT.6 capillaries (Nanotemper) in triplicate and positioned in the […] instrument. […] The fluorescence ratio vs temperature was plotted and the inflection temperature (Ti) of the profile was recorded. Changes in inflection (ΔTi) for the inhibitors were calculated by subtracting the mean Ti of the Keap1 sample plus vehicle from the mean Keap1 plus binder value (n = 3).

The target in data set [3] is T1, Keap1 Kelch domain. Briefly: Fluorescence polarisation (FP) competition assay. The format is binding. As to conditions: for inhibition at 10 µM: read-out: FP percentage inhibition at 10 μM concentration of inhibitor; for IC50: 200 nM Keap1 Kelch domain, 1 nM FITC-β-DEETGEF-OH. The procedure: The FP assays were carried out according to previously described methods [[23],[31], [32], [33], [34]]. […] Following incubation under slow agitation (30 min at rt in the absence of light), the plates were transferred to a PHERAstar microplate reader and the FP was recorded. All measurements were recorded in triplicate. The data were normalised to the control and then fitted to a standard four-parameter logistic function using the Origin Pro software.
On the technique in general: In fluorescence polarisation assays a small probe gives low polarisation when free and higher when bound to something large.

A further data set has as its target Keap1 (Homo sapiens, UniProt Q14145). Briefly: Microscale thermophoresis (MST). As to conditions: 10 nM Keap1.
In data set [4] the target is T1, Keap1 Kelch domain. The data set can be described thus: Isothermal titration calorimetry (ITC). As to conditions: 25 °C; read-out: ITC Kd. Format: binding. The procedure:
The measurements were performed as described previously. The small molecule inhibitor at 500 μM was titrated over 30 injections against 50 μM protein in buffer containing 25 mM HEPES (pH 7.4), 200 mM NaCl and 5 % DMSO. ITC experiments were performed using a MicroCal PEAQ-ITC instrument (Malvern Instruments, UK) at 25 °C with a stirring speed of 750 rpm. The first injection volume was of 0.3 μL followed by 29 injections of 1.3 μL and a gap of 120 s between each injection. Data analyses were performed as previously described. Each small molecule ITC measurement was performed in duplicate and resultant values obtained were averaged after independent analysis.

T1 sequence (Q14145 322-609): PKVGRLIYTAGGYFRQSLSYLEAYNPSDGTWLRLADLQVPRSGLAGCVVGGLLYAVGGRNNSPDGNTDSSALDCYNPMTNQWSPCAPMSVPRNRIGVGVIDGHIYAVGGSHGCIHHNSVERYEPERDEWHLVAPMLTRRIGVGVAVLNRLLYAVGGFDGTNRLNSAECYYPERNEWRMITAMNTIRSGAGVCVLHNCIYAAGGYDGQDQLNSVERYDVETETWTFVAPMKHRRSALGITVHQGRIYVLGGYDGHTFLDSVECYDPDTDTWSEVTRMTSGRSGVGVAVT
Keap1, sequence (Q14145 322-609): as above

For the molecule `COc1ccc(S(=O)(=O)N(CC(=O)O)c2ccc(N(CC(=O)O)S(=O)(=O)c3ccc(OC)cc3)c3ccccc23)cc1` [Compound 2, 2,2'-(Naphthalene-1,4-diylbis(((4-methoxyphenyl)sulfonyl)azanediyl))diacetic acid, reference compound], the fold induction at 100 µM with Nrf2 stood at 10.9. Also, the fold induction at 10 µM in the data set on NQO1 is 2.34 ± 0.35. Besides, in data set [1] (300 K), the “Occupancy of the more shielded state (A)” value was found to be 0.426 ±0.001 and the kA→B turned out to be 3.175 ± 0.005 s⁻¹. Besides, in data set [1] (310 K), the “Occupancy of the more shielded state (A)” value came out at 0.436 ±0.001 and the kA→B amounted to 8.456 ± 0.024 s⁻¹. In data set [1] (320 K), the “Occupancy of the more shielded state (A)” value is 0.443 ±0.001 and the kA→B came out at 18.949 ± 0.04 s⁻¹. In data set [1], the “ΔH^‡AB” value was 15.8 ± 0.598 kcal/mol and the ΔHAB was -0.636 ± 0.0598 kcal/mol.
`COc1ccc(S(=O)(=O)N(CC(N)=O)c2ccc(N(CC(N)=O)S(=O)(=O)c3ccc(OC)cc3)c3ccccc23)cc1` [Compound 4, 2,2'-(Naphthalene-1,4-diylbis(((4-methoxyphenyl)sulfonyl)azanediyl))diacetamide]: the “DSF ΔTi” value on Keap1 Kelch domain [2] was found to be 7.6 ± 0.1 °C.
Consider `CCOC(=O)CN(c1ccc(N(CC(=O)OCC)S(=O)(=O)c2ccc(OC)cc2)c2ccccc12)S(=O)(=O)c1ccc(OC)cc1` [Compound 11, Diethyl 2,2'-(naphthalene-1,4-diylbis(((4-methoxyphenyl)sulfonyl)azanediyl))diacetate], for which, on Keap1 Kelch domain [3], the inhibition at 10 µM amounted to 0%.
`COc1ccc(S(=O)(=O)N(CC#N)c2ccc(N(CC#N)S(=O)(=O)c3ccc(OC)cc3)c3ccccc23)cc1` [Compound 12, N,N'-(Naphthalene-1,4-diyl)bis(N-(cyanomethyl)-4-methoxybenzenesulfonamide)]: in the data set on NQO1, the fold induction at 10 µM came to 0.89 ± 0.24. Also, on Keap1 Kelch domain [3], the inhibition at 10 µM came out at 0%.
For `COc1ccc(S(=O)(=O)N(Cc2nnn[nH]2)c2ccc(N(Cc3nnn[nH]3)S(=O)(=O)c3ccc(OC)cc3)c3ccccc23)cc1` [Compound 13, N,N'-(Naphthalene-1,4-diyl)bis(N-((1H-tetrazol-5-yl)methyl)-4-methoxybenzenesulfonamide)], the “DSF ΔTi” value at Keap1 Kelch domain [2] came out at 20.4 ± 0.1 °C. Besides, the dissociation constant (Kd) came to 17.1 ± 2.6 nM at Keap1 and 75.6 ± 33.9 nM on Keap1 Kelch domain [4]. Further, the fold induction at 10 µM in the data set with NQO1 came to 1.94 ± 0.22. Besides, the “Occupancy of the more shielded state (A)” value in data set [1] (300 K) is reported as 0.542 ±0.003; in data set [1] (310 K), 0.548 ±0.001; in data set [1] (320 K), 0.552 ±0.001. The figures for the kA→B in data set [1] (300 K), in data set [1] (310 K) and in data set [1] (320 K) were 1.063 ± 0.008 s⁻¹, 1.459 ± 0.006 s⁻¹ and 2.927 ± 0.010 s⁻¹, respectively. For the same molecule, the “ΔH^‡AB” value in data set [1] was 10.4 ± 2.29 kcal/mol. The same molecule yielded a ΔHAB in data set [1] of -0.394 ± 0.0406 kcal/mol. On Keap1 Kelch domain [3], this molecule yielded an IC50 of 76 ± 3 nM.
Regarding `COc1ccc(S(=O)(=O)N(Cc2nnc(C)o2)c2ccc(N(Cc3nnc(C)o3)S(=O)(=O)c3ccc(OC)cc3)c3ccccc23)cc1` [Compound 17, N,N'-(Naphthalene-1,4-diyl)bis(4-methoxy-N-((5-methyl-1,3,4-oxadiazol-2-yl)methyl)benzenesulfonamide)], the “DSF ΔTi” value on Keap1 Kelch domain [2] was 0.6 ± 0.1 °C. In addition, the fold induction at 10 µM in the data set on NQO1 amounted to 1.25 ± 0.18. At Keap1 Kelch domain [3], the “binding activity in FP assay” value is “not tolerated” and the inhibition at 10 µM was found to be 0%.
`CCOC(=O)CN(c1ccc(N(CC(=O)O)S(=O)(=O)c2ccc(OC)cc2)c2ccccc12)S(=O)(=O)c1ccc(OC)cc1` [Compound 22, 2-(N-(4-(N-(2-Ethoxy-2-oxoethyl)-4-methoxyphenylsulfonamido)naphthalen-1-yl)-4-methoxyphenylsulfonamido)acetic acid]: the fold induction at 10 µM in the data set with NQO1 came to 0.77 ± 0.18. Besides, on Keap1 Kelch domain [3], the “binding activity in FP assay” value was “inactive” and the inhibition at 10 µM amounted to 0%.
As for `COc1ccc(S(=O)(=O)N(CC(N)=O)c2ccc(N(CC(=O)O)S(=O)(=O)c3ccc(OC)cc3)c3ccccc23)cc1` [Compound 23, 2-(N-(4-(N-(2-Amino-2-oxoethyl)-4-methoxyphenylsulfonamido)naphthalen-1-yl)-4-methoxyphenylsulfonamido)acetic acid], the “DSF ΔTi” value at Keap1 Kelch domain [2] amounted to 10.0 ± 0.2 °C. For the same molecule, the fold induction at 10 µM in the data set on NQO1 is 1.9 ± 0.05. Moreover, the IC50 at Keap1 Kelch domain [3] worked out at 143 ± 18 nM.

The term Kd denotes the concentration at which binding is half-saturated. The term IC50 denotes the concentration that gives 50% inhibition.
